Measurements: patent publication US8426342B2, “Method for weed control in lawn” (priority 2008, dated 2013)
Marks after values point to notes of the source that are not given here.

Experiments:
weed plants = assay: Greenhouse herbicidal effect in weed control ex. 6.2 (Tables 34 to 37); type: in vivo; conditions: post-emergence; for Herbicidal effect (%) 7 DAT on Trifolium pratense: 3-leaves stage
Experimental: (§1) When the data observed already exceed the formal total (=E^A) of the data in the experiments with individual applications, they likewise exceed the expected value according to Colby, which is calculated using the formula below and is likewise regarded as an indication of synergism (cf. S. R. Colby; in Weeds 15 (1967) pp. 20 to 22): E=A+B−(A·B/100)

Cynodon dactylon = assay: Greenhouse selectivity testing ex. 6.1, turf grass plants in 1-leaf stage, % injury
Experimental: Turf grass plants were grown in sandy loam soil in the greenhouse under good growing conditions up to the 1-leaf stage. In parallel tests, a formulation (water-dispersable powder) containing a mixture of the compounds no. […] The turf grass plants were further kept under good growing conditions. 7 days after application the selectivity was visually evaluated as percent (%) injury compared to untreated control plants.

Capsella bursa pastoris = assay: Greenhouse herbicidal effect in weed control ex. 6.2, 2- to 3-leaves stage; type: in vivo
Excerpt: (§2) That means, when applying the combinations according to the invention, herbicidal effects are observed on a harmful plant species which exceed the formal total of the effects of the herbicides present when these are applied by themselves. Alternatively, it is observed in some cases that a lower application rate is required for the herbicide combination in order to achieve the same effect on a harmful plant species in comparison with the individual products.
as §1
(§3) In this formula: • A=action of active compound (A) in % at an application rate of a g of AS/ha; • B=action of active compound (B) in % at an application rate of b g of AS/ha; • E=expected value of the action of the combination (A)+(B) in % at the combined application rate a+b g of AS/ha.
(§4) The data observed in the experiments show, at suitably low dosages, an action of the combinations which exceeds the expected values according to Colby (=E^C).

[1] = tested on: specific warm season turf grasses; assay: Field trial ex. 7.2, turf grass safety in post-emergence application (Table 40); type: in vivo
Excerpt: (§5) Seeds or rhizome pieces of monocotyledonous and dicotyledonous weed plants and specific warm season turf grasses were placed in the field in sandy loam soil, covered with soil and grown until the plants had reached the leaves stage indicated in the tables. […] The herbicidal effect was visually evaluated as percent (%) herbicidal effect compared to untreated control plants. The results are summarized in Table 40 below and show a synergistic increase in herbicidal effect of the mixtures of active ingredients and a good safety of the turf grass.

[2] = tested on: monocotyledonous and dicotyledonous weed plants; assay: Field trial ex. 7.2, weed control in post-emergence application (Table 40); type: in vivo; conditions: 2-leaves stage, 12 DAT
Experimental: as §1, §3, §5

[3] = tested on: monocotyledonous and dicotyledonous weed plants; assay: Field trial ex. 7.1, weed control in pre-emergence application, 12 DAT (Tables 38, 39); type: in vivo
Experimental: as §1
Seeds or rhizome pieces of monocotyledonous and dicotyledonous weed plants were placed in the field in sandy loam soil and covered with soil. […] 12 days after application (12 DAT), the herbicidal effect on the developed weed plants was visually evaluated as percent (%) herbicidal effect compared to untreated control plants.

Taraxacum officinalis = assay: Greenhouse herbicidal effect in weed control ex. 6.2, 1- to 2-leaves stage; type: in vivo
Excerpt: as §2, §1, §3, §4

[4] = Cynodon dactylon, in vivo, 7 days after application

## CCS(=O)(=O)c1cccnc1S(=O)(=O)NC(=O)Nc1nc(OC)cc(OC)n1 [Rimsulfuron, reference compound]
Weed plants; 5 g a.i./ha
  Herbicidal effect (%) 7 DAT on Trifolium pratense: 40%
Cynodon dactylon; [4]
  Selectivity evaluation (% injury) 7 DAT on Cynodon dactylon: 10%

## N#Cc1cc(Br)c(O)c(Br)c1 [Bromoxynil]
Capsella bursa pastoris; 100 g a.i./ha
  Herbicidal effect (%) 7 DAT on Capsella bursa pastoris: 30%

## COC(=O)c1ccc(CNS(C)(=O)=O)cc1S(=O)(=O)NC(=O)Nc1nc(OC)cc(OC)n1 [Mesosulfuron-methyl, reference compound]
[1]; in vivo
  Herbicidal effect (%) on Paspalum notatum (warm season turf grass): 0%
[2]; 5 g a.i./ha
  Herbicidal effect (%) on Commelina benghalensis: 47%
Cynodon dactylon; 5 g a.i./ha, 7 DAT, greenhouse, 1-leaf stage
  Selectivity evaluation (% injury) 7 DAT on Cynodon dactylon: 0%
[3]; Table 38, field, 5 g a.i./ha
  Herbicidal effect (%) 12 DAT on Brachiaria decumbens: 0%

## Cc1cc(Cl)ccc1OCC(=O)O [MCPA, reference compound]
Weed plants; 500 g a.i./ha
  Herbicidal effect (%) 7 DAT on Trifolium pratense: 30%
Cynodon dactylon; 500 g a.i./ha, 7 DAT, greenhouse, 1-leaf stage
  Selectivity evaluation (% injury) 7 DAT on Cynodon dactylon: 0%

## O=C(O)CNCP(=O)(O)O [Glyphosate]
Taraxacum officinalis; 200 g a.i./ha
  Herbicidal effect (%) 7 DAT on Taraxacum officinalis: 40%

## Nc1c(Cl)c(Cl)nc(C(=O)O)c1Cl [Picloram, reference compound]
Weed plants; 3- to 4-leaves stage, 300 g a.i./ha
  Herbicidal effect (%) 7 DAT on Echinocloa crus-galli: 30%
Cynodon dactylon; 300 g a.i./ha, 7 DAT, greenhouse, 1-leaf stage
  Selectivity evaluation (% injury) 7 DAT on Cynodon dactylon: 0%

## CCOC(=O)C(Cl)Cc1cc(-n2nc(C)n(C(F)F)c2=O)c(F)cc1Cl (stereo not drawn) [Carfentrazone-ethyl]
[1]; field, post-emergence, 3-leaves stage, 15 g a.i./ha, 7 DAT
  Herbicidal effect (%) on Paspalum notatum (warm season turf grass): 0%
Weed plants; 8 g a.i./ha
  Herbicidal effect (%) 7 DAT on Trifolium pratense: 0%
[2]; 15 g a.i./ha
  Herbicidal effect (%) on Commelina benghalensis: 59%
[3]; Table 39, field, 15 g a.i./ha
  Herbicidal effect (%) 12 DAT on Brachiaria decumbens: 0%

## CCOc1ccccc1OS(=O)(=O)NC(=O)Nc1nc(OC)cc(OC)n1 [Ethoxysulfuron]
Cynodon dactylon; [4]
  Selectivity evaluation (% injury) 7 DAT on Cynodon dactylon: 0%
[3]; Table 38, field, 30 g a.i./ha
  Herbicidal effect (%) 12 DAT on Brachiaria decumbens: 0%
Capsella bursa pastoris; 20 g a.i./ha
  Herbicidal effect (%) 7 DAT on Capsella bursa pastoris: 50%

## Nc1c(Cl)c(F)nc(OCC(=O)O)c1Cl [Fluroxypyr]
Cynodon dactylon; [4]
  Selectivity evaluation (% injury) 7 DAT on Cynodon dactylon: 0%
Capsella bursa pastoris; 100 g a.i./ha
  Herbicidal effect (%) 7 DAT on Capsella bursa pastoris: 60%

## Cc1cc(Cl)ccc1O[C@@H](C)C(=O)O [Mecoprop-P]
Taraxacum officinalis; 500 g a.i./ha
  Herbicidal effect (%) 7 DAT on Taraxacum officinalis: 20%

## O=C(O)CNCP(=O)([O-])O.[K+] [Glyphosate-potassium salt (K salt)]
[1]; field, post-emergence, 3-leaves stage, 620 g a.i./ha, 7 DAT, turf grass used is not glyphosate tolerant
  Herbicidal effect (%) on Paspalum notatum (warm season turf grass): 23^5) %
[1]; field, post-emergence, 3-leaves stage, 840 g a.i./ha, 7 DAT, turf grass used is not glyphosate tolerant
  Herbicidal effect (%) on Paspalum notatum (warm season turf grass): 40^5) %
[2]; 620 g a.i./ha
  Herbicidal effect (%) on Commelina benghalensis: 62%
[2]; 840 g a.i./ha
  Herbicidal effect (%) on Commelina benghalensis: 62%
[3]; Table 39, field, 620 g a.i./ha
  Herbicidal effect (%) 12 DAT on Brachiaria decumbens: 0%
[3]; Table 39, field, 840 g a.i./ha
  Herbicidal effect (%) 12 DAT on Brachiaria decumbens: 0%

## COc1cc(OC)n2nc(S(=O)(=O)Nc3c(Cl)ccc(C)c3Cl)nc2n1 [Metosulam]
Taraxacum officinalis; 10 g a.i./ha
  Herbicidal effect (%) 7 DAT on Taraxacum officinalis: 10%
Cynodon dactylon; [4]
  Selectivity evaluation (% injury) 7 DAT on Cynodon dactylon: 0%

## CCOC(=O)[C@@H](C)Oc1ccc(Oc2nc3ccc(Cl)cc3o2)cc1 [Fenoxaprop-P-ethyl]
Weed plants; 45 g a.i./ha
  Herbicidal effect (%) 7 DAT on Trifolium pratense: 0%
[3]; Table 39, field, 60 g a.i./ha
  Herbicidal effect (%) 12 DAT on Brachiaria decumbens: 0%

## COC(=O)c1ccccc1S(=O)(=O)NC(=O)Nc1nc(C)nc(OC)n1 [Metsulfuron-methyl]
Weed plants; 5 g a.i./ha
  Herbicidal effect (%) 7 DAT on Trifolium pratense: 30%
